Test results published in paper PMC7689250, “Synthetic Peptide Libraries Designed From a Minimal Alpha-Helical Domain of AS-48-Bacteriocin Homologs Exhibit Potent Antibacterial Activity” (Frontiers in Microbiology, 2020).
Read-outs that look alike come from different tables or passages of the source. Residues, ends and D or L forms follow the SMILES beside them.

Tests used:
sheep erythrocytes = type: cell-based; conditions: red cells of sheep, 1 h
Method: To determine if peptide variants were hemolytic, fresh defibrinated whole sheep blood (Hardy Diagnostics) was washed three times in cold PBS, and washed blood was diluted 1:25 in PBS. Treatments were applied at a 1:10 ratio of sample:blood, where the sample was either 10% Triton, PBS, or a specific peptide concentration corresponding to concentrations used in the MIC assays. Treatments were incubated with the blood for 1 h at 37°C. Following incubation, samples were centrifuged at […] for 10 min at 4°C, and the absorbance of the supernatants at 450 nm was measured on the Synergy H1 Microplate Reader to measure the release of hemoglobin. Percent hemolysis was quantified by normalizing to the negative and positive controls.

S. aureus (USA300) = type: cell-based, Staphylococcus aureus; conditions: for MBC: USA300; for MIC: USA300, 16 h
Method: (§1) Peptides were screened against Escherichia coli (BL21), Streptococcus pyogenes (M1T1 5448, hereby referred to as M1), Pseudomonas aeruginosa (PAO1), and Staphylococcus aureus (USA300). Overnight bacterial cultures were grown in optimal media for each species: Luria-Bertani (LB) broth for E. coli, P. aeruginosa, and S. aureus, and Todd-Hewitt (TH) broth for S. pyogenes. Cultures were pelleted and re-suspended in Mueller-Hinton (MH) broth for peptide screens or minimal inhibitory concentration (MIC) assays, with 1 × 10^6 CFU/mL bacteria added per well ([Wiegand et al., 2008]). MICs for each parent peptide were identified against each bacterial strain as previously described ([Fields et al., 2018]). Members of each peptide library were screened against each bacterial strain at half of the MIC of the corresponding parent peptide to identify library members with increased antimicrobial activity relative to the parent peptide. […] Minimal bactericidal concentrations (MBCs) were determined following the respective MIC assays by plating aliquots from wells corresponding to each peptide concentration from the 96-well plate used for the MIC on species-appropriate agar. Plates were incubated at 37°C overnight, and MBCs were identified as the lowest concentrations of peptide at which no colonies were obtained. A Synergy H1 Microplate Reader (BioTek, Winooski, VT, United States) was used to determine the MICs and identify peptides with greater antimicrobial activity than the corresponding parent peptide by measuring OD 600 of the bacterial cultures in 96-well microtiter plates.

S. pyogenes (M1) = type: cell-based, Streptococcus pyogenes; conditions: for MBC: M1
Method: as §1

P. aeruginosa (PAO1) = type: cell-based, Pseudomonas aeruginosa; conditions: for MBC: PAO1; for MIC: PAO1, 16 h
Method: as §1

E. coli (BL21) = type: cell-based, Escherichia coli; conditions: for MBC: BL21
Method: as §1

| MIC (S. aureus (USA300)) | MIC (S. pyogenes (M1); M1, 16 h) | MIC (P. aeruginosa (PAO1)) | MIC (E. coli (BL21); BL21, 16 h) | MIC (S. pyogenes (M1); S. pyogenes M1) | MIC (E. coli (BL21); E. coli BL21) | Structure (SMILES) | Percent Hemolysis (sheep erythrocytes) | MBC (S. aureus (USA300)) | MBC (S. pyogenes (M1)) | MBC (P. aeruginosa (PAO1)) | MBC (E. coli (BL21)) |
| --- | --- | --- | --- | --- | --- | --- | --- | --- | --- | --- | --- |
| 8 µM | 4 µM | 16 µM | 4 µM |  |  | CC[C@H](C)[C@H](NC(=O)[C@H](Cc1ccccc1)NC(=O)[C@H](C)NC(=O)[C@H](CCCCN)NC(=O)[C@H](CCCCN)NC(=O)CNC(=O)[C@H](CCCNC(=N)N)NC(=O)[C@H](CCCCN)NC(=O)[C@H](CCCNC(=N)N)NC(=O)[C@H](CC(C)C)NC(=O)[C@H](CCC(=O)O)NC(=O)[C@H](CCC(=O)O)NC(=O)[C@H](CC(C)C)NC(=O)[C@H](CC(C)C)NC(=O)[C@H](Cc1ccc(O)cc1)NC(=O)[C@H](CCCCN)NC(=O)[C@@H](NC(=O)[C@H](CC(C)C)NC(=O)[C@H](C)NC(=O)[C@H](CCC(N)=O)NC(=O)[C@H](CCCNC(=N)N)NC(=O)[C@H](CCCCN)NC(=O)[C@H](C)N)[C@@H](C)O)C(=O)N[C@@H](C)C(=O)N[C@@H](Cc1c[nH]c2ccccc12)C(=O)O [Syn-xiamencin-92] (H-AKRQALTKYLLEELRKRGKKAFIAW-OH; N-terminus and C-terminus assumed) | 18.8% | 8 µM | 8 µM | 16 µM | 8 µM |
| >128 µM | 2 µM | 8 µM | 1 µM |  |  | CC[C@H](C)[C@H](NC(=O)[C@H](CCC(=O)O)NC(=O)[C@H](CCCNC(=N)N)NC(=O)[C@H](CCCNC(=N)N)NC(=O)[C@H](CC(C)C)NC(=O)[C@H](Cc1ccc(O)cc1)NC(=O)[C@H](CCCCN)NC(=O)[C@H](C)NC(=O)[C@@H](NC(=O)[C@@H](NC(=O)[C@H](CCC(N)=O)NC(=O)[C@H](CCCNC(=N)N)NC(=O)CNC(=O)[C@H](C)N)[C@@H](C)O)[C@@H](C)CC)C(=O)N[C@@H](CCCNC(=N)N)C(=O)N[C@@H](CCCCN)C(=O)N[C@@H](CCCNC(=N)N)C(=O)NCC(=O)N[C@@H](CCCNC(=N)N)C(=O)N[C@@H](CCCCN)C(=O)N[C@@H](Cc1c[nH]c2ccccc12)C(=O)N[C@H](C(=O)N[C@H](C(=O)N[C@@H](C)C(=O)N[C@@H](Cc1c[nH]c2ccccc12)C(=O)O)[C@@H](C)CC)C(C)C [Syn-sordellicin-50] (H-AGRQTIAKYLRREIRKRGRKWVIAW-OH; N-terminus and C-terminus assumed) | 11.5% | >128 µM | 2 µM | 16 µM | 1 µM |
| >128 µM |  | 8 µM | 2 µM | 0.5 µM |  | CC[C@H](C)[C@H](NC(=O)[C@H](CCCNC(=N)N)NC(=O)[C@H](CCC(N)=O)NC(=O)[C@@H](NC(=O)CNC(=O)[C@@H](N)Cc1c[nH]c2ccccc12)[C@@H](C)O)C(=O)N[C@@H](CCCCN)C(=O)N[C@@H](C)C(=O)N[C@@H](Cc1ccc(O)cc1)C(=O)N[C@@H](CC(C)C)C(=O)N[C@@H](CCCNC(=N)N)C(=O)N[C@@H](CCCNC(=N)N)C(=O)N[C@@H](CCC(=O)O)C(=O)N[C@H](C(=O)N[C@@H](CCCNC(=N)N)C(=O)N[C@@H](CCCCN)C(=O)N[C@@H](CCCNC(=N)N)C(=O)NCC(=O)N[C@@H](CCCNC(=N)N)C(=O)N[C@@H](CCCCN)C(=O)N[C@@H](C)C(=O)N[C@H](C(=O)N[C@H](C(=O)N[C@@H](C)C(=O)N[C@@H](Cc1c[nH]c2ccccc12)C(=O)O)[C@@H](C)CC)C(C)C)[C@@H](C)CC [Syn-sordellicin-11] (H-WGTQRIKAYLRREIRKRGRKAVIAW-OH; N-terminus and C-terminus assumed) | 21.3% | >128 µM | 0.5 µM | 8 µM | 2 µM |
| >128 µM | 4 µM | 128 µM | 16 µM |  |  | CC[C@H](C)[C@H](NC(=O)[C@H](Cc1ccccc1)NC(=O)[C@H](C)NC(=O)[C@H](CCCCN)NC(=O)[C@H](CCCCN)NC(=O)CNC(=O)[C@H](CCCNC(=N)N)NC(=O)[C@H](CCCCN)NC(=O)[C@H](CCCNC(=N)N)NC(=O)[C@H](CC(C)C)NC(=O)[C@H](Cc1ccc(O)cc1)NC(=O)[C@H](CCC(=O)O)NC(=O)[C@H](CCCCN)NC(=O)[C@H](CC(C)C)NC(=O)[C@H](CCC(=O)O)NC(=O)[C@H](CC(C)C)NC(=O)[C@@H](NC(=O)[C@H](CC(C)C)NC(=O)[C@H](CCCCN)NC(=O)[C@H](CCC(N)=O)NC(=O)[C@H](CCCNC(=N)N)NC(=O)CNC(=O)[C@H](C)N)[C@@H](C)O)C(=O)N[C@@H](C)C(=O)N[C@@H](Cc1c[nH]c2ccccc12)C(=O)O [Syn-xiamencin-83] (H-AGRQKLTLELKEYLRKRGKKAFIAW-OH; N-terminus and C-terminus assumed) | 10.7% | >128 µM | 4 µM | >128 µM | 32 µM |
| 2 µM | 1 µM | 64 µM | 2 µM |  |  | CC[C@H](C)[C@H](NC(=O)[C@H](CCCCN)NC(=O)[C@H](C)NC(=O)[C@H](CCCNC(=N)N)NC(=O)[C@H](CCCCN)NC(=O)[C@H](CCCCN)NC(=O)CNC(=O)[C@H](CCC(=O)O)NC(=O)[C@H](CCC(N)=O)NC(=O)[C@@H](NC(=O)[C@H](CCCCN)NC(=O)[C@H](CCCCN)NC(=O)[C@H](CCCCN)NC(=O)[C@H](CC(C)C)NC(=O)[C@H](Cc1ccccc1)NC(=O)[C@H](CCC(N)=O)NC(=O)[C@H](CCCNC(=N)N)NC(=O)[C@@H](NC(=O)[C@@H](NC(=O)[C@H](CCC(=O)O)NC(=O)[C@H](CCCCN)NC(=O)CNC(=O)[C@H](C)N)[C@@H](C)O)[C@@H](C)CC)[C@@H](C)CC)C(=O)N[C@@H](C)C(=O)N[C@@H](Cc1c[nH]c2ccccc12)C(=O)O [Syn-larvacin-92] (H-AGKETIRQFLKKKIQEGKKRAKIAW-OH; N-terminus and C-terminus assumed) | 29.9% | 8 µM | 1 µM | 128 µM | 2 µM |
| 16 µM | 4 µM | >128 µM | 16 µM |  |  | CC[C@H](C)[C@H](NC(=O)[C@H](Cc1ccccc1)NC(=O)[C@H](C)NC(=O)[C@H](CCCCN)NC(=O)[C@H](CCCCN)NC(=O)CNC(=O)[C@H](CCCNC(=N)N)NC(=O)[C@H](CCCCN)NC(=O)[C@H](CCCNC(=N)N)NC(=O)[C@H](CC(C)C)NC(=O)[C@H](CCC(=O)O)NC(=O)[C@H](CCC(=O)O)NC(=O)[C@H](CCCCN)NC(=O)[C@H](CC(C)C)NC(=O)[C@H](Cc1ccc(O)cc1)NC(=O)[C@H](CC(C)C)NC(=O)[C@@H](NC(=O)[C@H](CC(C)C)NC(=O)[C@H](C)NC(=O)[C@H](CCC(N)=O)NC(=O)[C@H](CCCNC(=N)N)NC(=O)CNC(=O)[C@H](C)N)[C@@H](C)O)C(=O)N[C@@H](Cc1c[nH]c2ccccc12)C(=O)N[C@@H](Cc1c[nH]c2ccccc12)C(=O)O [Syn-xiamencin-57] (H-AGRQALTLYLKEELRKRGKKAFIWW-OH; N-terminus and C-terminus assumed) | 17.0% | 32 µM | 8 µM | >128 µM | 16 µM |
| 64 µM | 2 µM | 16 µM |  |  | 0.25 µM | CC[C@H](C)[C@H](NC(=O)[C@H](CCCNC(=N)N)NC(=O)[C@H](CC(N)=O)NC(=O)[C@@H](NC(=O)CNC(=O)[C@H](C)N)[C@@H](C)O)C(=O)N[C@@H](C)C(=O)N[C@@H](CCCCN)C(=O)N[C@@H](CCC(=O)O)C(=O)N[C@@H](CC(C)C)C(=O)N[C@@H](CCCNC(=N)N)C(=O)N[C@@H](CCCNC(=N)N)C(=O)N[C@@H](Cc1ccc(O)cc1)C(=O)N[C@H](C(=O)N[C@@H](CCCNC(=N)N)C(=O)N[C@@H](CCCCN)C(=O)N[C@H](C(=O)NCC(=O)N[C@@H](CCCNC(=N)N)C(=O)N[C@H](C(=O)N[C@@H](CCCCN)C(=O)N[C@@H](CCCNC(=N)N)C(=O)N[C@@H](CCCCN)C(=O)N[C@@H](C)C(=O)N[C@@H](Cc1c[nH]c2ccccc12)C(=O)O)[C@@H](C)CC)C(C)C)[C@@H](C)CC [Syn-sordellicin-80] (H-AGTNRIAKELRRYIRKVGRIKRKAW-OH; N-terminus and C-terminus assumed) | 11.3% | 64 µM | 2 µM | 16 µM | 0.5 µM |
